# Measured values reported in patent US11897862B2 (Gilead Sciences, Inc., priority 2022, dated 2024).
# Key:
# Assay type in all cases: cell-based
# [1] = target: T1, IKZF1 (Homo sapiens, UniProt Q13422+Q96SW2); experiment: HEK293 HiBiT in vitro degradation of IKZF1; settings: for DC50: HEK293 HiBiT, 18-24 hr incubation, normalized to DMSO control, read-out: IKZF1 EC50; for Dmax: HEK293, HEK293 HiBiT, maximum degradation at the highest concentration tested
# T1 construct: expressed in transfected cells
# Procedure, shortened: (§1)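 Dox-inducible ([…] final, overnight) HEK293 Flp-In T-REx, single-copy target-HiBiT C-terminal fusion; compound serial dilution, 18-24 h, 37 °C; lytic Nano-Glo luminescence; EC50, Dmax.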
# [2] = target: T2, IKZF2 (Homo sapiens, UniProt Q96SW2+Q9UKS7); experiment: HEK293 HiBiT in vitro degradation of IKZF2; parameters: expressed in transfected cells; settings: for Dmax / IKZF2 Dmax: maximum degradation at the highest concentration tested; for DC50: 18-24 hr incubation, normalized to DMSO control, read-out: IKZF2 EC50
# Procedure, shortened: as §1
# Target sequence in this assay (Q9UKS7 1-500 isoform Q9UKS7-2): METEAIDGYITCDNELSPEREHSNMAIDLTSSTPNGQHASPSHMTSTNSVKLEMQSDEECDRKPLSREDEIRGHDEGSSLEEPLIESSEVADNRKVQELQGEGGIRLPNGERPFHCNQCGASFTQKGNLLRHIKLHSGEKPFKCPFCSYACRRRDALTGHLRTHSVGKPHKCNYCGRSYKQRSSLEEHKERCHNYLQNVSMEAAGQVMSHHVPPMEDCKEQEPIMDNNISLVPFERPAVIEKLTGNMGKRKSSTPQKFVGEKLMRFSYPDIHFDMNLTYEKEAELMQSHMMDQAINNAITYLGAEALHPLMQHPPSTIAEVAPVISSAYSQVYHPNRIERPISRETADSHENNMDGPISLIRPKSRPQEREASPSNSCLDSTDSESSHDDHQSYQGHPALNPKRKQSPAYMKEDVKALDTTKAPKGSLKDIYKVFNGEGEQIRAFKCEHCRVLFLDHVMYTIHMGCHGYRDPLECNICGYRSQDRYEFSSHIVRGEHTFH
# Target sequence in this assay (Q96SW2 whole entry): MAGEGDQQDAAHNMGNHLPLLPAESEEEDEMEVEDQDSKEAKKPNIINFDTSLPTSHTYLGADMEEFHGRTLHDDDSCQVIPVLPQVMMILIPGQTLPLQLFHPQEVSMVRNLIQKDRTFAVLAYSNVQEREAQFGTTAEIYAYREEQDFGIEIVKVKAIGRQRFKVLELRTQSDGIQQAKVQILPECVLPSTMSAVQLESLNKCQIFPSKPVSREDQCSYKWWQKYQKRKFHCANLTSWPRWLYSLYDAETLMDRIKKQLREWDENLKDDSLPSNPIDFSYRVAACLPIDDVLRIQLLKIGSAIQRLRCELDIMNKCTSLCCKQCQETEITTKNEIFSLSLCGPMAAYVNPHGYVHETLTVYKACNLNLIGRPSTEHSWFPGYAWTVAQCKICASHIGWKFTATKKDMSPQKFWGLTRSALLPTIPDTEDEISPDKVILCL
# Target sequence in this assay (Q16531 whole entry partner): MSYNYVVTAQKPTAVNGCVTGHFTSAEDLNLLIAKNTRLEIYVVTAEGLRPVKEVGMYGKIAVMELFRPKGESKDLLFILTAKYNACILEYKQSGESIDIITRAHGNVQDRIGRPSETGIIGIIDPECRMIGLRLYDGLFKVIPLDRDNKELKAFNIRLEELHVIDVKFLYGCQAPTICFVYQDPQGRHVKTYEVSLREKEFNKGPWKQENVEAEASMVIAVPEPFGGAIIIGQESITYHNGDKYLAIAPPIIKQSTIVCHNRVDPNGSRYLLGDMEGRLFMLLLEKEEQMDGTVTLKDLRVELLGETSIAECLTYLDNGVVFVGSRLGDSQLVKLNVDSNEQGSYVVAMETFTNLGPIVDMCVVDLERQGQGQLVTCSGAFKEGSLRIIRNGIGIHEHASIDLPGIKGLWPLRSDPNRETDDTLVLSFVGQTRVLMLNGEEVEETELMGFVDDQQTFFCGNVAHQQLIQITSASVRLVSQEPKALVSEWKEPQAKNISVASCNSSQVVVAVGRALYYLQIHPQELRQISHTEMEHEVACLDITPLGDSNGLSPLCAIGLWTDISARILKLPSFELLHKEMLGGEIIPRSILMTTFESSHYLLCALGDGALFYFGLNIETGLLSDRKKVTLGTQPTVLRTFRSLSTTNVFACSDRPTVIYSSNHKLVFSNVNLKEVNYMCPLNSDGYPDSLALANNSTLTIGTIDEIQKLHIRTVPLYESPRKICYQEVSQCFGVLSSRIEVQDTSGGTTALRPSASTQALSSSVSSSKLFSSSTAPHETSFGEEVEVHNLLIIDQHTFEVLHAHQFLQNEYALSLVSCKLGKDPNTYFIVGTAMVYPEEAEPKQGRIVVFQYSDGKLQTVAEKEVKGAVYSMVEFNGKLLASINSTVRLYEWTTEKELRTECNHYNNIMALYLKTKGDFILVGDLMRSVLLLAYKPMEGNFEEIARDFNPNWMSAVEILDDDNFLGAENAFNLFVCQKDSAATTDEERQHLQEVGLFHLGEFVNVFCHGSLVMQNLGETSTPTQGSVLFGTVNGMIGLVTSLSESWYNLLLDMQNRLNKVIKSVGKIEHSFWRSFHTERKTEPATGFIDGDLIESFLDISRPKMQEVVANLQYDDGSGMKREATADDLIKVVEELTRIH
# [3] = target: T2, IKZF2; experiment: HEK293 IKZF2 degradation kinetics (HiBiT, timepoints 1-24 h); parameters: expressed in transfected cells; settings: for kinact: HEK293, IKZF2, timepoints 1, 2, 3, 4.5 and 24 hour, read-out: Maximum degradation rate Kinact (converted)
# Protocol: The assay technology and principles for evaluating IKZF2 degradation kinetics in HEK293 cells was identical to the HEK293 degradation assay as described above. Additional details are briefly described below.
# On Day 1, Cells were grown and induced the same as described above. On Days 2 and 3, compounds for testing were dispensed via ECHO and cells were lifted and plated into compound-spotted assay plates as above. Plates were returned to the 37° C. incubator until addition of Nano-Glo lytic reagent at 1, 2, 3, 4.5, and 24 hour timepoints. At these timepoints, plates were read on Envision reader as above.
# All raw data was normalized to DMSO control (final concentration: 0.5%) wells as POC and plotted out as a function of time to generate the degradation rate constant (K) value. The maximum degradation rate (Kinact) was determined by plotting the K value as a function of concentration for each compound tested. Kinact values are shown in Table 25 and the degradation rate plots as well as timecourse of degradation are shown for select compounds in FIG. 1A, FIG. 1B, FIG. 2A and FIG. 2B.
# Target sequence in this assay (Q9UKS7 1-500 isoform Q9UKS7-2): as the sequence (Q9UKS7 1-500 isoform Q9UKS7-2) above
# Target sequence in this assay (Q96SW2 whole entry): as the sequence (Q96SW2 whole entry) above
# Target sequence in this assay (Q16531 whole entry partner): as the sequence (Q16531 whole entry partner) above
# [4] = target: T3, SALL4 (Homo sapiens, UniProt Q96SW2+Q9UJQ4); experiment: HEK293 HiBiT in vitro degradation of SALL4; settings: 18-24 hr incubation, normalized to DMSO control, read-out: SALL4 EC50
# T3 construct: expressed in transfected cells
# Protocol: In vitro degradation of IKZF1, IKZF2, and SALL4 was measured using HiBiT protein tagging and detection technology (Promega).
# HiBit technology was used to develop the quantitative assays to measure the cellular IKZFs level by tagging an 11 amino acid HiBit peptides […] to the protein of interest. Reporter plasmids were generated by fusing a linker sequence ([…]) followed by the HiBit tag at the C-terminus of IKZF1, IKZF2, and SALL4. The fusion fragments were subsequently cloned into pcDNA5 pcDNA™5/FRT/TO plasmids (Thermo Fisher, cat #V652020) downstream of the tetracycline operator. The resulting plasmids were co-transfected with pOG44 Flp-Recombinase Expression Vector (Thermo Fisher, cat #V600520) into Flp-In™ T-REx HEK293 line (Thermo Fisher, cat #R78077) and a stable cell pool was selected by adding 100 µg/ml of Hygromycin (Thermo Fisher, cat #10687010). The reporter cell enabled Tet-On inducible reporter expression from a single copy of the integrated gene.
# On Day 1, Cells were grown to ˜80% confluency in tissue culture medium (DMEM Glutamax (Gibco10569), 10% Tet free FBS (Takara 631106), and PenStrep Glutamin (Gibco 10378)) in tissue culture flasks. Doxycycline was then added to a final concentration of […] to induce reporter expression at 37° C. overnight.
# On Day 2, 125 nL of serially-diluted solution of testing compounds were dispensed into 384-well white solid assay plates via ECHO acoustic liquid handler. Cells were lifted by 0.25% Trypsin (Gibco 25200) then pelleted by centrifugation (Beckman Avanti J-E) at 500×g for 5 min. Cell pellets were resuspended in TC medium at the concentration of 3e5/mL and 25 μL of cell suspension were added into each well of compound-spotted plates. The plates were returned to a 37° C. incubator overnight (18-24 hr).
# On Day 3, assay plates were removed from the tissue culture incubator and 25 μL of Nano-Glo lytic detection system (Promega, cat #N3030) was added to each well. Plates were incubated at r.t. for 3 min with shaking, and luminescence was read using an Envision reader (Perkin Elmer).
# To assess the IKZF1, IKZF2, and SALL4 degrader potential of exemplified compounds of this disclosure and certain Reference Compounds EC50 and Dmax values were determined for the compounds of Examples 1 to 383 and Reference Compounds A-1, B-1, B-2, B-3, B-4, and C-1 in the HiBiT assays. Asterisks (*) indicate examples for which the data shown represents an average of n≥3.
# [5] = target: T2, IKZF2; experiment: Human whole blood IKZF2 degradation (flow cytometry, CD4/CD25/Foxp3+ Treg cells); parameters: endogenous in cells; settings: 24 hrs incubation, IKZF2 MFI in CD4/CD25/Foxp3+ Treg cells, flow cytometry; for DC50: read-out: IKZF2 EC50
# Procedure, shortened: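 Fresh healthy-donor human whole blood stimulated with CD3/CD28 activator and serially diluted compound for 24 hrs at 37° C. IKZF2 MFI in CD4/CD25/Foxp3+ Tregs (IKZF1 MFI in CD4+ T cells) measured by flow cytometry after RBC lysis, fixation, permeabilization. EC50 and Dmax versus DMSO wells.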
# Target sequence in this assay (Q9UKS7 whole entry): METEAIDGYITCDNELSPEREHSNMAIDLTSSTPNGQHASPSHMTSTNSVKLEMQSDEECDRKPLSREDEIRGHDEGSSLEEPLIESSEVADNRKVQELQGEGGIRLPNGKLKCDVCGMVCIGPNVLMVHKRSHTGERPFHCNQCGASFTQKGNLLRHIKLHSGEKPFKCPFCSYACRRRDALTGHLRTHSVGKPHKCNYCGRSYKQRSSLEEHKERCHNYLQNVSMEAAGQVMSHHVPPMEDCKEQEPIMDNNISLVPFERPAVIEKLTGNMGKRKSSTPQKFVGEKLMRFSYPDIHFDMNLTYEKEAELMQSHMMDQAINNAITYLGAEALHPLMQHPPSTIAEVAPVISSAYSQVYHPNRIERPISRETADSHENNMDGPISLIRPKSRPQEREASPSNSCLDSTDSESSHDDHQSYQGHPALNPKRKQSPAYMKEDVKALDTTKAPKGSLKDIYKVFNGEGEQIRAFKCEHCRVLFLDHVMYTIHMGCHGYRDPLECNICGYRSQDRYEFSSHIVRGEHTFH
# Target sequence in this assay (Q96SW2 whole entry): as the sequence (Q96SW2 whole entry) above
# Target sequence in this assay (Q16531 whole entry partner): as the sequence (Q16531 whole entry partner) above
# T3 sequence (Q9UJQ4 whole entry): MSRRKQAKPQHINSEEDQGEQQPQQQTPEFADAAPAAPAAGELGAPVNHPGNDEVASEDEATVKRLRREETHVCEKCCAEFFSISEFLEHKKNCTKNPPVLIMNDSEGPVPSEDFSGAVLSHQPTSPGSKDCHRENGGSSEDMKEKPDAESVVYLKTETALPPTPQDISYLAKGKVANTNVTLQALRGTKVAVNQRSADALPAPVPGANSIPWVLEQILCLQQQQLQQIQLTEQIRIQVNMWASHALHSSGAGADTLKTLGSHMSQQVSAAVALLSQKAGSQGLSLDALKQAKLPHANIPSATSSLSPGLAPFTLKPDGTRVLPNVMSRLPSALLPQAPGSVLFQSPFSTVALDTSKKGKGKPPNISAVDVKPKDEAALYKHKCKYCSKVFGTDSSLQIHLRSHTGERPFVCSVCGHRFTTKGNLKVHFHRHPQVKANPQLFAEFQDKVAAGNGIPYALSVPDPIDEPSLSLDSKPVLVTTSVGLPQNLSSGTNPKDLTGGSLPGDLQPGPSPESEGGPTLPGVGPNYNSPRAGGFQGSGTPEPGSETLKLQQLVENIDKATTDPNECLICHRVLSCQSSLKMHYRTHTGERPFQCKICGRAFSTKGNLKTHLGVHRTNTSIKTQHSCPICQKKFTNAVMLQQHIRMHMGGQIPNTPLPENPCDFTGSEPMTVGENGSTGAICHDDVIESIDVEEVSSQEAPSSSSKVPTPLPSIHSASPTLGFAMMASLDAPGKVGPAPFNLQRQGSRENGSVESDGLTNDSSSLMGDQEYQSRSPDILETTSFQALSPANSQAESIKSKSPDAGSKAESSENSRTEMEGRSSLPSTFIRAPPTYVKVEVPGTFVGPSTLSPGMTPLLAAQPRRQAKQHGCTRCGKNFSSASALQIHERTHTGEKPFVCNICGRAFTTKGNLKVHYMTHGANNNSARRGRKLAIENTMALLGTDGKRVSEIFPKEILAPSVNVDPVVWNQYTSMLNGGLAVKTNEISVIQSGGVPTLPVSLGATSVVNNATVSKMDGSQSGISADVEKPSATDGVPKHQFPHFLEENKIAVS
# T3 sequence (Q96SW2 whole entry): as the sequence (Q96SW2 whole entry) above
# T3 sequence (Q16531 whole entry partner): as the sequence (Q16531 whole entry partner) above
# T1 sequence (Q13422 whole entry): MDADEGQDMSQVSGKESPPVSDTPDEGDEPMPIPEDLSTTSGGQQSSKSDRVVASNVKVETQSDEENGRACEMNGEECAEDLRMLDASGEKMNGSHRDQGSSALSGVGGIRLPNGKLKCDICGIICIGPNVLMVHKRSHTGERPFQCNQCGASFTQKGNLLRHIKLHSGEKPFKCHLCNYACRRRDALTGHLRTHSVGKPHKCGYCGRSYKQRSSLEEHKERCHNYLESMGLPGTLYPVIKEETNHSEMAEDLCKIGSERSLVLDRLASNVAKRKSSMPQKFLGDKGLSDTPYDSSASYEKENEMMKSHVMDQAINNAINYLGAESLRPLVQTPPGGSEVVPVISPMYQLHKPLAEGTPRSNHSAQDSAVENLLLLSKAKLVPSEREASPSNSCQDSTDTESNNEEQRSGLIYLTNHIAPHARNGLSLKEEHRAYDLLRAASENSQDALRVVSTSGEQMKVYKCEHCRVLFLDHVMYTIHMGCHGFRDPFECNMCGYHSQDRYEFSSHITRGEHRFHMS
# T1 sequence (Q96SW2 whole entry): as the sequence (Q96SW2 whole entry) above
# T1 sequence (Q16531 whole entry partner): as the sequence (Q16531 whole entry partner) above
Structure (SMILES),DC50 [1],"Dmax ([2]; HEK293, HEK293 HiBiT)",DC50 ([2]; HEK293 HiBiT),"speed of IKZF2 degradation compared with Reference Compounds A-1, B-3, B-4, C-1 ([3]; HEK293)",kinact [3],DC50 [4],IKZF2 Dmax ([2]; HEK293 HiBiT),Dmax [1],Dmax [5],DC50 [5],Dmax ([2]; HEK293 HiBiT)
"O=C1CCC(N2Cc3cc(C[C@H]4CCCC[C@@H]4NCc4ccccc4)ccc3C2=O)C(=O)N1 (stereo partly drawn) [Example 2, 3-(5-(((1R,2S)-2-(benzylamino)cyclohexyl)methyl)-1-oxoisoindolin-2-yl)piperidine-2,6-dione]",> 10000 nM,88%,18 nM,faster degradation of IKZF2,0.000147 s⁻¹,,,,,,
"O=C1CCC(N2Cc3c(ccc(C[C@H]4OCCC[C@@H]4NC4CCC(OC(F)F)CC4)c3F)C2=O)C(=O)N1 (single isomer, unassigned) [Example 327]",535 nM,,3 nM,,,> 10000 nM,96%,,,,
"COC1(C)CCC(N[C@H]2CCCO[C@@H]2Cc2ccc3c(c2F)CN(C2CCC(=O)NC2=O)C3=O)CC1 (single isomer, unassigned) [Example 316]",> 1000 nM,95%,7 nM,,,> 10000 nM,,,,,
O=C1CCC(N2Cc3cc(O[C@H]4CCCC[C@@H]4NCc4ccccc4)ccc3C2=O)C(=O)N1 (stereo partly drawn) [Example B-3],,84%,,,5.56e-05 s⁻¹,,,,,,
"O=C1CC[C@@H](N2Cc3c(ccc(C[C@H]4CCCC[C@@H]4NC4CCC(F)(F)CC4)c3F)C2=O)C(=O)N1 (single isomer, unassigned) [Example 335]",16 nM,97%,1 nM,,,> 10000 nM,,62%,,,
[2H]C1(N[C@H]2CCCC[C@@H]2Cc2ccc3c(c2F)CN(C2CCC(=O)NC2=O)C3=O)CCC(F)(F)CC1 (stereo partly drawn) [Example 209],35 nM,97%,1 nM,,,> 10000 nM,,62%,,,
"O=C1CC[C@@H](N2Cc3c(ccc(C[C@H]4OCCC[C@@H]4N[C@H]4CC[C@H](F)CC4)c3F)C2=O)C(=O)N1 (single isomer, unassigned) [Example 373]",> 1000 nM,94%,7 nM,,0.000111 s⁻¹,,,,,,
"O=C1CCC(N2Cc3cc(C[C@H]4OCCC[C@@H]4NC4CCC(F)CC4)ccc3C2=O)C(=O)N1 (single isomer, unassigned) [Example 367]",> 1000 nM,,15 nM,,,> 10000 nM,87%,,,,
"O=C1CC[C@H](N2Cc3c(ccc(C[C@H]4OCCC[C@@H]4N[C@H]4CC[C@H](C(F)F)CC4)c3F)C2=O)C(=O)N1 (single isomer, unassigned) [Example 330]",37 nM,94%,3 nM,,,> 10000 nM,,28%,,,
"O=C1CC[C@@H](N2Cc3c(ccc(C[C@H]4OCCC[C@@H]4N[C@H]4CC[C@H](C(F)F)CC4)c3F)C2=O)C(=O)N1 (single isomer, unassigned) [Example 331]",448 nM,96%,4 nM,,,> 10000 nM,,,,,
O=C1CCC(N2Cc3c(ccc(C[C@H]4OCCC[C@@H]4NC4CCN(CC(F)F)CC4)c3F)C2=O)C(=O)N1 (stereo partly drawn) [Example 309],> 1000 nM,,16 nM,,,> 10000 nM,,,,,96%
"O=C1CC[C@H](N2Cc3c(ccc(C[C@H]4CCCC[C@@H]4NC4CCC(F)(F)CC4)c3F)C2=O)C(=O)N1 (single isomer, unassigned) [Example 334]",13 nM,97%,1 nM,,,> 10000 nM,,59%,,,
"O=C1CCC(N2Cc3c(ccc(C[C@H]4OCCC[C@@H]4N[C@H]4CC[C@@H](F)CC4)c3F)C2=O)C(=O)N1 (single isomer, unassigned) [Example 290]",138 nM,98%,4 nM,,,> 10000 nM,,27%,96%,6 nM,

# The next lines start with results.
DC50 [1],"Dmax ([2]; HEK293, HEK293 HiBiT)",DC50 ([2]; HEK293 HiBiT),"speed of IKZF2 degradation compared with Reference Compounds A-1, B-3, B-4, C-1 ([3]; HEK293)",kinact [3],DC50 [4],IKZF2 Dmax ([2]; HEK293 HiBiT),Dmax [1],Dmax [5],DC50 [5],Structure (SMILES),Dmax ([2]; HEK293 HiBiT)
> 1000 nM,96%,12 nM,,,> 10000 nM,,,,,O=C1CCC(N2Cc3c(ccc(C[C@H]4OCCC[C@@H]4NC4CCN(CC(F)(F)F)CC4)c3F)C2=O)C(=O)N1 (stereo partly drawn) [Example 308],
44 nM,98%,2 nM,,0.00015 s⁻¹,,,34%,89%,1 nM,O=C1CCC(N2Cc3c(ccc(C[C@H]4CCCC[C@@H]4NC4CCOCC4)c3F)C2=O)C(=O)N1 (stereo partly drawn) [Example 116],
,64%,,,8.33e-06 s⁻¹,,,,,,O=C1CCC(N2Cc3cc(N[C@H]4CCCC[C@@H]4NCc4ccccc4)ccc3C2=O)C(=O)N1 (stereo partly drawn) [Example C-1],
73 nM,97%,5 nM,,,> 10000 nM,,48%,,,Cn1ncc2c1CCC(N[C@H]1CCCC[C@@H]1Cc1ccc3c(c1)CN(C1CCC(=O)NC1=O)C3=O)C2 (stereo partly drawn) [Example 377],
79 nM,97%,1 nM,,,> 10000 nM,,42%,,,O=C1CCC(N2Cc3cc(C[C@H]4C[C@H](F)CC[C@@H]4NC4CCC(F)(F)CC4)ccc3C2=O)C(=O)N1 (stereo partly drawn) [Example 169],
> 1000 nM,85%,17 nM,,,> 10000 nM,,,,,"O=C1CCC(N2Cc3cc(C[C@H]4OCCC[C@@H]4NC4CCC(F)CC4)ccc3C2=O)C(=O)N1 (single isomer, unassigned) [Example 366]",
210 nM,94%,9 nM,,,> 10000 nM,,,,,"O=C1CC[C@@H](N2Cc3c(ccc(C[C@H]4OCCC[C@@H]4NC4CCC(F)(F)CC4)c3F)C2=O)C(=O)N1 (single isomer, unassigned) [Example 333]",
> 1000 nM,,3 nM,,,> 10000 nM,96%,,,,"COCC1CCC(N[C@H]2CCCO[C@@H]2Cc2ccc3c(c2F)CN(C2CCC(=O)NC2=O)C3=O)CC1 (single isomer, unassigned) [Example 265]",
> 1000 nM,95%,6 nM,,,> 10000 nM,,,,,"O=C1CC[C@H](N2Cc3c(ccc(C[C@H]4OCCC[C@@H]4NC4CCC(F)(F)CC4)c3F)C2=O)C(=O)N1 (single isomer, unassigned) [Example 332]",
41 nM,93%,6 nM,,,> 10000 nM,,51%,,,CO[C@H]1CC[C@H](Cc2ccc3c(c2)CN(C2CCC(=O)NC2=O)C3=O)[C@@H](NC2CCC(F)(F)CC2)C1 (stereo partly drawn) [Example 344],
